Data from patent US20250312462A1, “PAK1 DEGRADERS AND METHODS OF USE THEREOF” (INSTITUTE FOR CANCER RESEARCH D/B/A THE RESEARCH INSTITUTE …, priority 2022, published 2025).

Assays:
ITK = ITK (Homo sapiens, UniProt Q08881); assay: KINOMEscan; details: read-out: Percent Control
Experimental: (§1) The kinase engagement assay (KINOMEscan®) was performed by DiscoverX assessing binding abilities toward a set of kinases.

EPHA4 = EPHA4 (Homo sapiens, UniProt P54764); assay: KINOMEscan; details: read-out: Percent Control
Experimental: as §1

AAK1 = AAK1 (Homo sapiens, UniProt Q2M2I8); assay: KINOMEscan; details: read-out: Percent Control
Experimental: as §1

TNIK = TNIK (Homo sapiens, UniProt Q9UKE5); assay: KINOMEscan; details: read-out: Percent Control
Experimental: as §1

MAP4K4 = MAP4K4 (Homo sapiens, UniProt O95819); assay: KINOMEscan; details: read-out: Percent Control
Experimental: as §1

LTK = LTK (Homo sapiens, UniProt P29376); assay: KINOMEscan; details: read-out: Percent Control
Experimental: as §1

PIM3 = PIM3 (Homo sapiens, UniProt Q86V86); assay: KINOMEscan; details: read-out: Percent Control
Experimental: as §1

MELK = MELK (Homo sapiens, UniProt Q14680); assay: KINOMEscan; details: read-out: Percent Control
Experimental: as §1

HCK = HCK (Homo sapiens, UniProt P08631); assay: KINOMEscan; details: read-out: Percent Control
Experimental: as §1

PAK2 = PAK2 (Homo sapiens, UniProt Q13177); assay: KINOMEscan; details: read-out: Percent Control
Experimental: as §1

NEK7 = NEK7 (Homo sapiens, UniProt Q8TDX7); assay: KINOMEscan; details: read-out: Percent Control
Experimental: as §1

MKK7 = MKK7 (Homo sapiens, UniProt O14733); assay: KINOMEscan; details: read-out: Percent Control
Experimental: as §1

ACVR1B = ACVR1B (Homo sapiens, UniProt P36896); assay: KINOMEscan; details: read-out: Percent Control
Experimental: as §1

CAMK4 = CAMK4 (Homo sapiens, UniProt Q16566); assay: KINOMEscan; details: read-out: Percent Control
Sequence of CAMK4 (Q16566 whole entry): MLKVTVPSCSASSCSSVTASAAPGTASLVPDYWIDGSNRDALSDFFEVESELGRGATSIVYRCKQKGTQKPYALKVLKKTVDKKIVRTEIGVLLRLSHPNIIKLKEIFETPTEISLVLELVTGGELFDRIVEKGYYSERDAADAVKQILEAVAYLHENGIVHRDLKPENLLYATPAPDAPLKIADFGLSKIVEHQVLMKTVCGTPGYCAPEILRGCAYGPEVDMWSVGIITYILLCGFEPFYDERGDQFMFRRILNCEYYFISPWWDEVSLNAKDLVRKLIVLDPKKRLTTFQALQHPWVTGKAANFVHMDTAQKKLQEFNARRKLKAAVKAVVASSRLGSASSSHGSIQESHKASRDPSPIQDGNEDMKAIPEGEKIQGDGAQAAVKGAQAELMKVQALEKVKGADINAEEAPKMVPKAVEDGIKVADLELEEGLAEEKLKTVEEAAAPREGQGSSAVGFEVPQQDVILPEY
Experimental: as §1

RAF1 = RAF1 (Homo sapiens, UniProt P04049); assay: KINOMEscan; details: read-out: Percent Control
Experimental: as §1

CAMKK2 = CAMKK2 (Homo sapiens, UniProt Q96RR4); assay: KINOMEscan; details: read-out: Percent Control
Experimental: as §1

ARK5 = ARK5 (Homo sapiens, UniProt O60285); assay: KINOMEscan; details: read-out: Percent Control
Sequence of ARK5 (O60285 whole entry): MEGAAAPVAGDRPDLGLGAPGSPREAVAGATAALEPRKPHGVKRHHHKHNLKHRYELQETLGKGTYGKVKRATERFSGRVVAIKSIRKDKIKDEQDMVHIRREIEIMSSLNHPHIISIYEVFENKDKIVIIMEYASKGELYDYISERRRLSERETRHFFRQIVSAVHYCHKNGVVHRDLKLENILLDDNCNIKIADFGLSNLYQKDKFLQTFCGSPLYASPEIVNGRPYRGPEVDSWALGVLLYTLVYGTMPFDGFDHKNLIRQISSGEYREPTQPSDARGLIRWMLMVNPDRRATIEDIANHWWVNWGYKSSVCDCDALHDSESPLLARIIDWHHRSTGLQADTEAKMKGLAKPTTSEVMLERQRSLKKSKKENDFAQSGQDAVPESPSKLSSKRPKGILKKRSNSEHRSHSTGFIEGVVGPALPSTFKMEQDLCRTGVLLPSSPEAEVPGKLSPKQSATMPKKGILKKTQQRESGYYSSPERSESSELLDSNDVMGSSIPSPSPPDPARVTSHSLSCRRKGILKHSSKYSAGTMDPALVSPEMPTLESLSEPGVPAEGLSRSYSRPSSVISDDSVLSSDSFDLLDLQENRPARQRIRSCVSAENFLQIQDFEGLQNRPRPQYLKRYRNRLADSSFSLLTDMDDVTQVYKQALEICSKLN
Experimental: as §1

MEK5 = MEK5 (Homo sapiens, UniProt Q13163); assay: KINOMEscan; details: read-out: Percent Control
Experimental: as §1

JNK3 = JNK3 (Homo sapiens, UniProt P53779); assay: KINOMEscan; details: read-out: Percent Control
Experimental: as §1

ZAP70 = ZAP70 (Homo sapiens, UniProt P43403); assay: KINOMEscan; details: read-out: Percent Control
Experimental: as §1

PHKG1 = PHKG1 (Homo sapiens, UniProt Q16816); assay: KINOMEscan; details: read-out: Percent Control
Sequence of PHKG1 (Q16816 whole entry): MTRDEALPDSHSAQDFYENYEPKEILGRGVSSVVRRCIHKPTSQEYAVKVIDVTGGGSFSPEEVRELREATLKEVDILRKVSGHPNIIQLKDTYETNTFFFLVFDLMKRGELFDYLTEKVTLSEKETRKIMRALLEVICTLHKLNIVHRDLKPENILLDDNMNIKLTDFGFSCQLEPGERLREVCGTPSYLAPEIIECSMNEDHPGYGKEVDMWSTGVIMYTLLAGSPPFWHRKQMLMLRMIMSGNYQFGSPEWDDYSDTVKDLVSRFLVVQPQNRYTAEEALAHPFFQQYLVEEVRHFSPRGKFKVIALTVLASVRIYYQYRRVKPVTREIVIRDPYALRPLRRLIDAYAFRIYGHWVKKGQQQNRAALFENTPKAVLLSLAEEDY
Experimental: as §1

PKAC-alpha = PKAC-alpha (Homo sapiens, UniProt P17612); assay: KINOMEscan; details: read-out: Percent Control
Experimental: as §1

[1] = target: RSK1(Kin.Dom.2-C-terminal) (Homo sapiens, UniProt Q15418); assay: KINOMEscan; details: read-out: Percent Control
Sequence of RSK1(Kin.Dom.2-C-terminal) (Q15418 418-675 limits assumed): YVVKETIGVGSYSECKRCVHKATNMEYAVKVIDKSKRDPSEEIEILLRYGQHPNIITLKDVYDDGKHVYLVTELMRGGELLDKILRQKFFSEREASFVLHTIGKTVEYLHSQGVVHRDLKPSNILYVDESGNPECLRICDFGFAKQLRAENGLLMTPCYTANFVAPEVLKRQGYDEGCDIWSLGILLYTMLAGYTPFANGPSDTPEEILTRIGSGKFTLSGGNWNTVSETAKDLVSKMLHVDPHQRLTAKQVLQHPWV
Experimental: as §1

JNK1 = JNK1 (Homo sapiens, UniProt P45983); assay: KINOMEscan; details: read-out: Percent Control
Sequence of JNK1 (P45983 whole entry): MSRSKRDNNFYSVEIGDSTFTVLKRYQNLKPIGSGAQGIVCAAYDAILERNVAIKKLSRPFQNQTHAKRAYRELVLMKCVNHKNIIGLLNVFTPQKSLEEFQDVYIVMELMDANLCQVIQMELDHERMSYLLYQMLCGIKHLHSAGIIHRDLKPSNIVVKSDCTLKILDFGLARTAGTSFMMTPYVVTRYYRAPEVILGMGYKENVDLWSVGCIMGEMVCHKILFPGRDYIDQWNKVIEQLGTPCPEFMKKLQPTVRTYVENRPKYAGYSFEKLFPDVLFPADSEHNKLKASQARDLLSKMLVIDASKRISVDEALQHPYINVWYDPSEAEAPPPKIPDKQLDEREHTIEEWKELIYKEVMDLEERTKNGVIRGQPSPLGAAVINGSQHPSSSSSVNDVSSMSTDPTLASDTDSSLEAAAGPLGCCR
Experimental: as §1

SGK3 = SGK3 (Homo sapiens, UniProt Q96BR1); assay: KINOMEscan; details: read-out: Percent Control
Experimental: as §1

TSSK3 = TSSK3 (Homo sapiens, UniProt Q96PN8); assay: KINOMEscan; details: read-out: Percent Control
Experimental: as §1

HASPIN = HASPIN (Homo sapiens, UniProt Q8TF76); assay: KINOMEscan; details: read-out: Percent Control
Experimental: as §1

PAK1 = PAK1 (Homo sapiens, UniProt Q13153); assay: Z'-LYTE FRET kinase inhibition assay; format: biochemical; design: human recombinant PAK1 (kinase domain); purchased Invitrogen PV2830
Sequence of PAK1 (Q13153 270-521 limits assumed): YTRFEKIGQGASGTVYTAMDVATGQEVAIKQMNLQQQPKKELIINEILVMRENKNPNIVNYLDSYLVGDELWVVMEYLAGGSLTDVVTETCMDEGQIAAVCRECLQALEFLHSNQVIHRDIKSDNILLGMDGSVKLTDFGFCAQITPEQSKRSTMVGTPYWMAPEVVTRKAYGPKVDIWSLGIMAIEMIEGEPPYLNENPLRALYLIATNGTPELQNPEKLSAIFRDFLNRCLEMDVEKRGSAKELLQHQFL
Experimental: The activity/inhibition of human recombinant PAK1 (kinase domain) or PAK2 (full length) was determined by measuring the phosphorylation of a FRET peptide substrate (Ser/Thr19) labeled with Coumarin and Fluorescein using Z′-LYTE™ assay (Invitrogen). The 10 μL assay mixtures contained 50 mM HEPES (pH 7.5), 0.01% Brij-35, 10 mM MgCl2, 1 mM EGTA, 2 μM FRET peptide substrate, and PAK enzyme (20 pM PAK1; 50 pM PAK2). Incubations were carried out at 22° C. in black polypropylene 384-well plates (Corning Costar). […] Following the 60-minute incubation, the assay mixtures were quenched by the addition of 5 μL of Z′-LYTE™ development reagent, and 1 hour later the emissions of Coumarin (445 nm) and Fluorescein (520 nm) were determined after excitation at 400 nm using an Envision plate reader (Perkin Elmer).

TESK1 = TESK1 (Homo sapiens, UniProt Q15569); assay: KINOMEscan; details: read-out: Percent Control
Experimental: as §1

SRC = SRC (Homo sapiens, UniProt P12931); assay: KINOMEscan; details: read-out: Percent Control
Sequence of SRC (P12931 whole entry): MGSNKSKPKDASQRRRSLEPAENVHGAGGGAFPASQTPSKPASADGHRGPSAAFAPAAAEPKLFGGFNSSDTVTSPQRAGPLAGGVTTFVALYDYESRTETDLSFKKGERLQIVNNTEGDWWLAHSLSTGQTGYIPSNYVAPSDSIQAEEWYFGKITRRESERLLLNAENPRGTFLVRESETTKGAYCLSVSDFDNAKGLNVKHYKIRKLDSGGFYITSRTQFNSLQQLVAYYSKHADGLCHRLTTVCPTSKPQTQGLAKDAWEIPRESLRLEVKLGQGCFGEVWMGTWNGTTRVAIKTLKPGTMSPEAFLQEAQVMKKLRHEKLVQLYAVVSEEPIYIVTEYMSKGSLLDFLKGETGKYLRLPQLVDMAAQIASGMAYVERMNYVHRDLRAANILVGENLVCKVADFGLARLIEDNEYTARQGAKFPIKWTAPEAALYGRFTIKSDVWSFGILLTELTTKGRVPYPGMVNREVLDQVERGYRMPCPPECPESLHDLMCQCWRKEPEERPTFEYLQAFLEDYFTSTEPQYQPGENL
Experimental: as §1

RIPK5 = RIPK5 (Homo sapiens, UniProt Q6XUX3); assay: KINOMEscan; details: read-out: Percent Control
Sequence of RIPK5 (Q6XUX3 whole entry): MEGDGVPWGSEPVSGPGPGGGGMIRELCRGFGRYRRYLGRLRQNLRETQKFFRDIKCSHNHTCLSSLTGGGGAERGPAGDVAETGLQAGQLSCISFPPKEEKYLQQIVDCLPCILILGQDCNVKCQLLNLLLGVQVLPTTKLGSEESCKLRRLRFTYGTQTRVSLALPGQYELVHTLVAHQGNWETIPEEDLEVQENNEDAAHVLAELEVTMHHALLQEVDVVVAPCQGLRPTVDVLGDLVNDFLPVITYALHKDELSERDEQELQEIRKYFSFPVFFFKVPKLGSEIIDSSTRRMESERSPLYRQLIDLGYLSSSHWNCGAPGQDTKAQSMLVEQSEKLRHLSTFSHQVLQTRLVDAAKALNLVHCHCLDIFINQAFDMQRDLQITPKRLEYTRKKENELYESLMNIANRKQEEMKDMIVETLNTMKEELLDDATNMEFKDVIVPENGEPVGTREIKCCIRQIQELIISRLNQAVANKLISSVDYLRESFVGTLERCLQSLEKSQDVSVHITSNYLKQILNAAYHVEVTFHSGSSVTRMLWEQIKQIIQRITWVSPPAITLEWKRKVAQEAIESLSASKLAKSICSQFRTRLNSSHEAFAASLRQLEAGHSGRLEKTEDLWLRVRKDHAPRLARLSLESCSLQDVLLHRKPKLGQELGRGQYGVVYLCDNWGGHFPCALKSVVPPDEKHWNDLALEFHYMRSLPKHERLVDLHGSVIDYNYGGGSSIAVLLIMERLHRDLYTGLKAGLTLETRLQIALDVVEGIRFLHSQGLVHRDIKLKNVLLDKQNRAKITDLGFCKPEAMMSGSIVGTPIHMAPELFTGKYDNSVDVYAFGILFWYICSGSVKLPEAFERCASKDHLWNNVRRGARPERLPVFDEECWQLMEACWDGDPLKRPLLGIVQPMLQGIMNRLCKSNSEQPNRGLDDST
Experimental: as §1

RET(M918T) = RET(M918T) (Homo sapiens, UniProt P07949, M918T); assay: KINOMEscan; details: read-out: Percent Control
Experimental: as §1

PKNB(M. tuberculosis) = target: T1, PKNB(M. tuberculosis) (Mycobacterium tuberculosis, UniProt P9WI81); assay: KINOMEscan; format: binding; details: read-out: Percent Control
T1 construct: purchased DiscoverX

Sequence of AAK1 (Q2M2I8 whole entry): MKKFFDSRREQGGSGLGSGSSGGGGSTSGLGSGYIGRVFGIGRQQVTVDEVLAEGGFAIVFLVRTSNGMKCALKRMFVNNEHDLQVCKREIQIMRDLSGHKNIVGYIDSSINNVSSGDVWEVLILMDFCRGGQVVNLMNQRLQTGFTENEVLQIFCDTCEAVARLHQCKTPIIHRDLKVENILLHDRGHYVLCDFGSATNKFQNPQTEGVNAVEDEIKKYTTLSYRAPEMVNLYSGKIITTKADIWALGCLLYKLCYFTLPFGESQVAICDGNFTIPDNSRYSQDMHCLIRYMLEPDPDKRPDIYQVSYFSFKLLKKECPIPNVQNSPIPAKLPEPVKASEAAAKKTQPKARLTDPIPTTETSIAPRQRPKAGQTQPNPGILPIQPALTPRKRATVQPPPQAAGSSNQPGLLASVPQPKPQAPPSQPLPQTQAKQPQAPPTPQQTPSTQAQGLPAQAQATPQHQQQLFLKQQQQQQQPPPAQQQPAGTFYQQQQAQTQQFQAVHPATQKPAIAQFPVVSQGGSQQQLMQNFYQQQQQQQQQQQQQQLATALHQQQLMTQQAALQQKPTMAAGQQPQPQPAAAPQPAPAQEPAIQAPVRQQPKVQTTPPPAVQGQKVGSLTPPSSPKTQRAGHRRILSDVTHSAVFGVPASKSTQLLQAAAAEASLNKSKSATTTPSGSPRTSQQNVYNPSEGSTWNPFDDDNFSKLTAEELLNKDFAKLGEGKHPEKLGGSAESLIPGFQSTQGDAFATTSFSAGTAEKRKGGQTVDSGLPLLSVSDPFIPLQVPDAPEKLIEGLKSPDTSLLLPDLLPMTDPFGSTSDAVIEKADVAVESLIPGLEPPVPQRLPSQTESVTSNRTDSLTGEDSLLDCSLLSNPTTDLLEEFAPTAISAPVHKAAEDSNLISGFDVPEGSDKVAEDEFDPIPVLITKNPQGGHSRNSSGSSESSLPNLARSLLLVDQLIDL

Q: For `O=C1CCC(N2C(=O)c3cccc(NCCCCCCCCNC(=O)N4CC[C@H](NC5=Nc6cc(F)ccc6N(CC(F)F)c6ccc(Cl)cc65)C4)c3C2=O)C(=O)N1` (stereo partly drawn) [BJG-05-039, (3S)-3-((2-Chloro-5-(2,2-difluoroethyl)-8-fluoro-5H-dibenzo[b,e][1,4]diazepin-11-yl)amino)-N-(8-((2-(2,6-dioxopiperidin-3-yl)-1,3-dioxoisoindolin-4-yl)amino)octyl)pyrrolidine-1-carboxamide], which remaining binding at 10 µM (ITK) is on record?
A: 91%

Q: And the remaining binding at 10 µM (EPHA4)?
A: 82%

Q: And the remaining binding at 10 µM (AAK1)?
A: 48%

Q: And the remaining binding at 10 µM (TNIK)?
A: 48%

Q: And the remaining binding at 10 µM (MAP4K4)?
A: 45%

Q: What about the remaining binding at 10 µM (LTK) of the same molecule?
A: 84%

Q: What about the remaining binding at 10 µM (PIM3) of the same molecule?
A: 78%

Q: What about the remaining binding at 10 µM (MELK) of the same molecule?
A: 81%

Q: And the remaining binding at 10 µM (HCK)?
A: 90%

Q: What about the remaining binding at 10 µM (PAK2) of the same molecule?
A: 87%

Q: What about the remaining binding at 10 µM (NEK7) of the same molecule?
A: 79%

Q: And the remaining binding at 10 µM (MKK7)?
A: 100%

Q: And the remaining binding at 10 µM (ACVR1B)?
A: 85%

Q: And the remaining binding at 10 µM (CAMK4)?
A: 74%

Q: What about the remaining binding at 10 µM (RAF1) of the same molecule?
A: 97%

Q: And the remaining binding at 10 µM (CAMKK2)?
A: 46%

Q: What about the remaining binding at 10 µM (ARK5) of the same molecule?
A: 45%

Q: And the remaining binding at 10 µM (MEK5)?
A: 100%

Q: And the remaining binding at 10 µM (JNK3)?
A: 88%

Q: And the remaining binding at 10 µM (ZAP70)?
A: 100%

Q: And the remaining binding at 10 µM (PHKG1)?
A: 65%

Q: And the remaining binding at 10 µM (PKAC-alpha)?
A: 90%

Q: What about the remaining binding at 10 µM [1] of the same molecule?
A: 48%

Q: What about the remaining binding at 10 µM (JNK1) of the same molecule?
A: 83%

Q: And the remaining binding at 10 µM (SGK3)?
A: 88%

Q: What about the remaining binding at 10 µM (TSSK3) of the same molecule?
A: 100%

Q: And the remaining binding at 10 µM (HASPIN)?
A: 90%

Q: What about the IC50 (PAK1) of the same molecule?
A: 233 nM

Q: And the “Increase of selectivity over PAK2 relative to NVS-PAK-1” value (PAK1; from Table 1)?
A: more than ten-fold

Q: What about the “PAK1 inhibitory activity and selectivity of conjugate” value (PAK1; vs PAK2 and PAK4) of the same molecule?
A: retained PAK1 inhibitory activity and selectivity

Q: What about the remaining binding at 10 µM (TESK1) of the same molecule?
A: 92%

Q: And the remaining binding at 10 µM (SRC)?
A: 88%

Q: And the remaining binding at 10 µM (RIPK5)?
A: 87%

Q: What about the remaining binding at 10 µM (RET(M918T)) of the same molecule?
A: 90%

Q: What about the remaining binding at 10 µM (PKNB(M. tuberculosis)) of the same molecule?
A: 72%
